{"source": "patent US6166290A", "about": "“Glutathione-S-conjugate transport in plants” (The Trustees of the University of Pennsylvania, priority 1997, dated 2000)", "key": {"[1]": {"tested_on": "membrane vesicles purified from pYES3-transformed DTY168 cells", "assay": "DNP-GS uptake by membrane vesicles from pYES3 (empty vector)-transformed DTY168 cells", "assay_type": "biochemical, Saccharomyces cerevisiae", "protocol": "(§1) S. cerevisiae strain DTY168 (MATα his6, leu2-3, -112, ura3-52 ycf1::hisG) was transformed with pYES3-AtMRP1 or empty vector lacking the AtMRP1 insert (pYES3) by the LiOAc/PEG method (Giest et al., 1991, Yeast 7:253-263) and selected for uracil prototrophy by plating on AHC medium containing tryptophan (Kim et al., 1994, supra).\n(§2) For the preparation of membrane vesicles, 15 ml volumes of stationary phase cultures of the transformants were diluted into 1 L of fresh AHC medium and grown to an OD600 nm of about 1.2. Membrane vesicles were purified as described herein and in Kim et al. (1995, supra).\nDNP-GS uptake was measured as described herein in 200 μl reaction volumes containing 3 mM ATP, 3 mM MgSO4, 5 μM gramicidin-D, 10 mM creatine phosphate, 16 units/ml creatine kinase, 50 mM KCl, 1 mg/ml BSA, 400 mM sorbitol, 25 mM Tris-Mes (pH 8.0) and the indicated concentrations of [^3 H]DNP-GS (17.4 mCi/mmol)."}, "[2]": {"tested_on": "vacuolar membrane vesicles purified from DTY167 cells (ycf1Δ mutant)", "assay_type": "biochemical, Saccharomyces cerevisiae", "in_short": "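ATP-dependent [3H]DNP-GS (66.2 μM) transport measured by filtration and scintillation counting of Ficoll-purified yeast vacuolar vesicles (DTY165 wild type; DTY167 ycf1Δ), 1–60 min at 25 °C in sorbitol/Tris-Mes pH 8.0 with 3 mM ATP, 3 mM MgSO4 and gramicidin-D. Nonenergized uptake without ATP/Mg2+.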"}, "[3]": {"target": "T1, AtMRP1 (Arabidopsis thaliana, UniProt Q9C8G9)", "T1 construct": "S. cerevisiae DTY168 (ycf1 null) vacuolar-enriched membrane vesicles", "T1 sequence (Q9C8G9 whole entry)": "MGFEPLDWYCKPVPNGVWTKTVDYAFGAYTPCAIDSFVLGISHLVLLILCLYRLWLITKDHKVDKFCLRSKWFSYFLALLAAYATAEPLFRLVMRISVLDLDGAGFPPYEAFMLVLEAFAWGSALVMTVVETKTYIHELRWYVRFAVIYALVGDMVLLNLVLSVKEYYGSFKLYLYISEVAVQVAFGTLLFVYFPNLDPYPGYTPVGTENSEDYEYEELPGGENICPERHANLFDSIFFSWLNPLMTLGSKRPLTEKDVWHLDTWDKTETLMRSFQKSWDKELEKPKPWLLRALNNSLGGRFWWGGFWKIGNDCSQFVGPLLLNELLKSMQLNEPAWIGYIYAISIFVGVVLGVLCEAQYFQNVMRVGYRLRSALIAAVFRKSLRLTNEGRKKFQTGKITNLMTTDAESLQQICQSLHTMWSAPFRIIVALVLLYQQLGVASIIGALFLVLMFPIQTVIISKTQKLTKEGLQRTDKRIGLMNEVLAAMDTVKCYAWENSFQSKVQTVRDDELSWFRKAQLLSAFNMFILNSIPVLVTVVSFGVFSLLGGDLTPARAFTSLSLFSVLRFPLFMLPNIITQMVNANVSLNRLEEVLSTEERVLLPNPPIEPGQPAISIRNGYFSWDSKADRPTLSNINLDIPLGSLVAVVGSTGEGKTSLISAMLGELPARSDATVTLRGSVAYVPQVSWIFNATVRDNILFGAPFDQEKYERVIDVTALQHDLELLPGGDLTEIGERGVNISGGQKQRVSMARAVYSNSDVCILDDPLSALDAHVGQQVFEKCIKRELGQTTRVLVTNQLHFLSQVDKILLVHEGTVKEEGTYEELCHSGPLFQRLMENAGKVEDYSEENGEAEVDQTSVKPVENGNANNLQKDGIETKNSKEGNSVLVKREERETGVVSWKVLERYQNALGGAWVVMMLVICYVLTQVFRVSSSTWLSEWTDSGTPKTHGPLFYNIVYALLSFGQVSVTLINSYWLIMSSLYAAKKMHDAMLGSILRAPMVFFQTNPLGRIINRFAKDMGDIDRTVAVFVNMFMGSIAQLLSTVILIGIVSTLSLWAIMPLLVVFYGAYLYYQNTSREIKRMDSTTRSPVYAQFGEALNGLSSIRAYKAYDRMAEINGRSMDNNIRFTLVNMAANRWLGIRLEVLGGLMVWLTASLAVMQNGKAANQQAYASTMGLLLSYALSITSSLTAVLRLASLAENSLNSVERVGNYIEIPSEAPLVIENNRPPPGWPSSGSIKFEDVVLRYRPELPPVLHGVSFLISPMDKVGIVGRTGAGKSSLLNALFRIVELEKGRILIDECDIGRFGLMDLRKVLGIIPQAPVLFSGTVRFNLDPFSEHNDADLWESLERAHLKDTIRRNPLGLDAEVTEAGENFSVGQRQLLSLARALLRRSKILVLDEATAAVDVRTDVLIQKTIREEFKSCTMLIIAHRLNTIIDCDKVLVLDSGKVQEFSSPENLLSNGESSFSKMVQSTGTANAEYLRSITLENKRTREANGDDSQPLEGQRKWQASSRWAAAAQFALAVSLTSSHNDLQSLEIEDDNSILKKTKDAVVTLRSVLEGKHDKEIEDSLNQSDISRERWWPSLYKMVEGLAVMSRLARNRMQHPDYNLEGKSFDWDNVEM", "assay": "AtMRP1-dependent uptake by membrane vesicles from pYES3-AtMRP1-transformed DTY168 cells", "assay_type": "biochemical", "protocol": "as §1, §2\n[…] μl reaction volumes containing 3 mM ATP, 3 mM MgSO4, 5 μM gramicidin-D, 10 mM creatine phosphate, 16 units/ml creatine kinase, 50 mM KCl, 1 mg/ml BSA, 400 mM sorbitol, 25 mM Tris-Mes ([…]).\nCells were grown and vacuolar membrane-enriched vesicles were prepared as described (Kim et al., 1995, J Biol. Chem. 270:2630-2635-). […] Uptake was terminated by the addition of 1 ml ice-cold wash medium (400 mM sorbitol/3 mM Tris-Mes, pH 8.0) and vacuum filtration of the suspension through prewetted Millipore HA cellulose nitrate filters (pore size 0.45 μm). The filters were rinsed twice with wash medium, and the retained radioactivity was determined by liquid scintillation counting. Nonenergized uptake was estimated by the same procedure except that ATP was omitted from the uptake medium."}, "[4]": {"tested_on": "vacuolar GS-X pump (vacuolar membrane vesicles, Z. mays roots)", "details": "Zea mays root; cited from earlier work"}, "[5]": {"tested_on": "vacuolar membrane vesicles purified from Beta vulgaris storage root", "details": "cited from earlier work"}, "[6]": {"tested_on": "vacuolar GS-X pump (vacuolar membrane vesicles, Z. mays roots)", "assay": "GS-conjugate uptake by vacuolar membrane vesicles from roots of Z. mays", "assay_type": "biochemical, Zea mays"}}, "note": "Several values for one entry are separate records, joined by “and”; a condition that tells them apart may be missing. Identical values can stand only once. Like-named read-outs stand apart in the source and are kept apart here.", "data": [{"smiles": "N[C@@H](CCC(=O)N[C@@H](CSc1ccc([N+](=O)[O-])cc1[N+](=O)[O-])C(=O)NCC(=O)O)C(=O)O", "note": "[DNP-GS, S-(2,4-dinitrophenyl)glutathione]", "values": [{"measurement": "initial rate of DNP-GS uptake", "setting": "[1]; 61.3 μM DNP-GS", "value": 0.1, "unit": "nmol/mg/min"}, {"measurement": "Km", "setting": "[1]; read-out: apparent Km for DNP-GS uptake", "value": "> 500", "unit": "µM"}, {"measurement": "initial rate of DNP-GS uptake", "setting": "[2]; 3 mM MgATP, 66.2 μM DNP-GS", "value": 1.7, "unit": "nmol/mg/min"}, {"measurement": "DNP-GS uptake, control", "setting": "[2]; Table 1: 66.2 μM DNP-GS, 3 mM MgATP, no addition", "value": "15.4 ± 0.4", "unit": "nmol/mg/10 minutes"}, {"measurement": "MgATP-dependent, uncoupler-insensitive DNP-GS uptake, control", "setting": "[2]; Table 2: 5 μM gramicidin D, no compound", "value": "6.5 ± 0.8", "unit": "nmol/mg/10 minutes"}, {"measurement": "increase in DNP-GS uptake following introduction of plasmid borne AtMRP1", "setting": "[3]", "value": "ca. 4 nmol/mg/20 minutes"}, {"measurement": "initial rate of DNP-GS uptake", "setting": "[3]; 61.3 μM DNP-GS", "value": 0.4, "unit": "nmol/mg/min"}, {"measurement": "Vmax for AtMRP1-dependent uptake", "setting": "[3]; MgATP-dependent, uncoupler-insensitive", "value": "6.0±1.7 nmol/mg/10 min and 8.2±1.6 nmol/mg/10 min"}, {"measurement": "rate of MgATP-dependent, uncoupler-insensitive DNP-GS uptake", "setting": "[4]", "value": 2.1, "unit": "nmol/mg/20 minutes"}, {"measurement": "rate of MgATP-dependent, uncoupler-insensitive DNP-GS uptake", "setting": "[5]", "value": 18.2, "unit": "nmol/mg/20 minutes"}, {"measurement": "IC50", "setting": "[6]; read-out: I50 for uptake of ABA-GS", "value": 232, "unit": "µM"}, {"measurement": "IC50", "setting": "[6]; read-out: I50 for uptake of C3G-GS", "value": 112, "unit": "µM"}, {"measurement": "IC50", "setting": "[6]; read-out: I50 for uptake of IAA-GS", "value": 110, "unit": "µM"}]}]}
